Legend:
Assay in all cases: In Vitro Minimum Inhibitory Concentration (MIC) Assay
Assay type in all cases: cell-based
Parameters in all cases: key: compounds which were good inhibitors of growth of a particular bacteria are indicated with *; compounds which were very good inhibitors of a particular bacteria are indicated with **; compounds with were particularly good inhibitors of a particular bacteria are indicated with ***
Settings in all cases: CAMHB, 35° C., approximately 18 hr
E. coli = tested on: E. coli
Description: (§1) In Vitro Minimum Inhibitory Concentration (MIC) Assay
(§2) The following assay is used to determine the efficacy of minocycline compounds against common bacteria. 2 mg of each compound is dissolved in 100 μl of DMSO. The solution is then added to cation-adjusted Mueller Hinton broth (CAMHB), which results in a final compound concentration of 200 μg per ml. The minocycline compound solutions are diluted to 50 μL volumes, with a test compound concentration of 0.098 μg/ml. Optical density (OD) determinations are made from fresh log-phase broth cultures of the test strains. Dilutions are made to achieve a final cell density of 1×10^6 CFU/ml. At OD=1, cell densities for different genera should be approximately:
(§3) 50 μl of the cell suspensions are added to each well of microtiter plates. The final cell density should be approximately 5×10^5 CFU/ml. These plates are incubated at 35° C. in an ambient air incubator for approximately 18 hr. The plates are read with a microplate reader and are visually inspected when necessary. The MIC is defined as the lowest concentration of the minocycline compound that inhibits growth. Compounds of the invention indicate good inhibition of growth.
(§4) In Table 2, compounds which were good inhibitors of growth of a particular bacteria are indicated with *, compounds which were very good inhibitors of a particular bacteria are indicated with **, and compounds with were particularly good inhibitors of a particular bacteria are indicated with ***.

S. aureus = tested on: S. aureus
Description: as §1, §2, §3, §4

E. hirae = tested on: E. hirae
Description: as §1, §2, §3, §4

| SMILES | E. coli (inhibition of growth, MIC assay) (E. coli) | S. aureus (inhibition of growth, MIC assay) (S. aureus) | E. hirae (inhibition of growth, MIC assay) (E. hirae) |
| --- | --- | --- | --- |
| CCc1cc(CNC(=O)c2cccnc2)c(O)c2c1C[C@H]1C[C@H]3[C@H](N(C)C)C(O)=C(C(N)=O)C(=O)[C@@]3(O)C(O)=C1C2=O [HF] | * | * | ** |
| CCc1cc(CN)c(O)c2c1C[C@H]1C[C@H]3[C@H](N(C)C)C(O)=C(C(N)=O)C(=O)[C@@]3(O)C(O)=C1C2=O [HG] | * | ** | * |
| CN(C)[C@@H]1C(O)=C(C(N)=O)C(=O)[C@@]2(O)C(O)=C3C(=O)c4c(O)c(CN5C(=O)c6ccccc6C5=O)cc(-c5cccc([N+](=O)[O-])c5)c4C[C@H]3C[C@@H]12 [HK] | * | ** | ** |
| CN(C)[C@@H]1C(O)=C(C(N)=O)C(=O)[C@@]2(O)C(O)=C3C(=O)c4c(O)c(CN)cc(-c5ccc(F)cc5)c4C[C@H]3C[C@@H]12 [HM] | ** | ** | ** |
| CN(C)[C@@H]1C(O)=C(C(N)=O)C(=O)[C@@]2(O)C(O)=C3C(=O)c4c(O)c(CNC(=O)c5cccnc5)cc(CCC5CCCCC5)c4C[C@H]3C[C@@H]12 [HI] | * | ** | ** |
| CN(C)[C@@H]1C(O)=C(C(N)=O)C(=O)[C@@]2(O)C(O)=C3C(=O)c4c(O)c(CN5C(=O)c6ccccc6C5=O)cc(CN5C(=O)c6ccccc6C5=O)c4C[C@H]3C[C@@H]12 [HB] | * | ** | ** |
| CN(C)[C@@H]1C(O)=C(C(N)=O)C(=O)[C@@]2(O)C(O)=C3C(=O)c4c(O)c(CN)cc(-c5ccccc5)c4C[C@H]3C[C@@H]12 [HE] | * | ** | ** |
| CCc1cc(C#Cc2ccc(OC)cc2)c(O)c2c1C[C@H]1C[C@H]3[C@H](N(C)C)C(O)=C(C(N)=O)C(=O)[C@@]3(O)C(O)=C1C2=O [HW] | * | ** | ** |
| CC(=O)NCc1cc(-c2ccccc2)c2c(c1O)C(=O)C1=C(O)[C@]3(O)C(=O)C(C(N)=O)=C(O)[C@@H](N(C)C)[C@@H]3C[C@@H]1C2 [HX] | * | ** | *** |
| CN(C)[C@@H]1C(O)=C(C(N)=O)C(=O)[C@@]2(O)C(O)=C3C(=O)c4c(O)c(CN)cc(-c5cccc([N+](=O)[O-])c5)c4C[C@H]3C[C@@H]12 [HJ] | * | ** | ** |
| CCc1cc(C#CC2=CCCCC2)c(O)c2c1C[C@H]1C[C@H]3[C@H](N(C)C)C(O)=C(C(N)=O)C(=O)[C@@]3(O)C(O)=C1C2=O [Compound HO, 7-Ethyl-9-Cyclohexenylethynyl-Sancycline] | * | *** | *** |
| CCc1cc(CC)c2c(c1O)C(=O)C1=C(O)[C@]3(O)C(=O)C(C(N)=O)=C(O)[C@@H](N(C)C)[C@@H]3C[C@@H]1C2 [HV] | ** | *** | *** |
| CCCCCc1cc(CN2C(=O)c3ccccc3C2=O)c(O)c2c1C[C@H]1C[C@H]3[C@H](N(C)C)C(O)=C(C(N)=O)C(=O)[C@@]3(O)C(O)=C1C2=O [HU] | * | ** | *** |
| CC#Cc1cc(C#CC)c2c(c1O)C(=O)C1=C(O)[C@]3(O)C(=O)C(C(N)=O)=C(O)[C@@H](N(C)C)[C@@H]3C[C@@H]1C2 [IA] | * | * | * |
| CN(C)[C@@H]1C(O)=C(C(N)=O)C(=O)[C@@]2(O)C(O)=C3C(=O)c4c(O)c(CNC(=O)C5CCCO5)cc(-c5ccc(F)cc5)c4C[C@H]3C[C@@H]12 (stereo partly drawn) [HR] | * | ** | ** |
| CN(C)[C@@H]1C(O)=C(C(N)=O)C(=O)[C@@]2(O)C(O)=C3C(=O)c4c(O)c(C(C)(C)C)cc(-c5cccc([N+](=O)[O-])c5)c4C[C@H]3C[C@@H]12 [HP] | * | ** | *** |
| CN(C)[C@@H]1C(O)=C(C(N)=O)C(=O)[C@@]2(O)C(O)=C3C(=O)c4c(O)c(CNC(=O)CCl)cc(-c5ccccc5)c4C[C@H]3C[C@@H]12 [HN] | * | *** | ** |
| COc1ccc(C#Cc2cc(C#Cc3ccc(OC)cc3)c3c(c2O)C(=O)C2=C(O)[C@]4(O)C(=O)C(C(N)=O)=C(O)[C@@H](N(C)C)[C@@H]4C[C@@H]2C3)cc1 [HC] | * | * | * |
| CCCCCCc1cc(CN)c(O)c2c1C[C@H]1C[C@H]3[C@H](N(C)C)C(O)=C(C(N)=O)C(=O)[C@@]3(O)C(O)=C1C2=O [HS] | *** | ** | *** |
| CC(=O)NCc1cc(-c2ccc(F)cc2)c2c(c1O)C(=O)C1=C(O)[C@]3(O)C(=O)C(C(N)=O)=C(O)[C@@H](N(C)C)[C@@H]3C[C@@H]1C2 [HT] | * | ** | ** |
| CN(C)[C@@H]1C(O)=C(C(N)=O)C(=O)[C@@]2(O)C(O)=C3C(=O)c4c(O)c(-c5ccc6c(c5)OCO6)cc(-c5ccc6c(c5)OCO6)c4C[C@H]3C[C@@H]12 [Compound HZ, 7,9-Bis(3,4-Methylenedioxyphenyl)-Sancycline] | * | *** | ** |
| CCCc1cc(CN)c(O)c2c1C[C@H]1C[C@H]3[C@H](N(C)C)C(O)=C(C(N)=O)C(=O)[C@@]3(O)C(O)=C1C2=O [HL] | ** | ** | ** |
| CCCCc1cc(CN)c(O)c2c1C[C@H]1C[C@H]3[C@H](N(C)C)C(O)=C(C(N)=O)C(=O)[C@@]3(O)C(O)=C1C2=O [HQ] | ** | ** | ** |

— patent publication US7696186B2, “7,9-substituted tetracycline compounds” (Paratek Pharmaceuticals, Inc., priority 2001, dated 2010)
